From US20080317836A1, “Topical compositions for anti-aging skin treatment” (DISCOVERY PARTNERS LLC, priority 2007, published 2008) come the findings set out here.

The series in a line: Stability to intense pulsed light (IPL) flashes, monitored by absorbance spectrum. The conditions noted are these: ten pulses at maximum fluence of the flash lamp, visible spectral range. In kind it is physicochemical. Here is the method:
A small study, on one subject, was conducted to see whether encapsulation of the sodium-copper-chlorophyllin within the liposome enhanced skin tanning, i.e., increased penetration and bioavailability of copper to the melanin-producing enzyme, […]. […] Three areas on the back received 1.0 MED simulated solar radiation: one area had received no treatment, one area had been pre-treated with the gel without liposome and the third area was treated with the liposome gel. An expert blinded grader scored the resulting skin tanning at 10 days after irradiation, using the Degree of Tanning scale 0 to 10 (darkest). […] Controlled dissociation of the sodium-copper-chlorophyllin complex is possible, in part because of the high stability of this complex. Normally, inorganic and organic copper salts, including copper-peptides, are not very stable with regard to binding copper. The inherent stability and lack of reactivity of sodium-copper-chlorophyllin is essential for this process to work successfully. […] Stability was monitored by measurement of the dye's full absorbance spectrum, since degradation of the dye would be detectable as changes in the absorbance spectrum.

For the substance “sodium-copper-chlorophyllin [sodium-copper-chlorphyllin]”, the “absorbance spectrum after IPL flashes” value is “remained unchanged”.
